# Experimental data: patent US20260285850A1, “SUBSTITUTED OXAZOLIDINONES AND IMIDAZOLINONES AS HERBICIDES” (FMC CORPORATION, priority 2023, published 2026)
# Tests used:
# Type in all cases: in vivo
# [1] = tested on: ryegrass, Italian (italian ryegrass, Lolium multiflorum); assay: Test A postemergence application, visual injury rating 0-100; conditions: Postemergence, 10 days, 0 is no effect, 100 is complete control
# Outline: (§1)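 Compound in a non-phytotoxic, surfactant-containing solvent is applied either as a directed soil spray before seedlings emerge or onto emerged plants 2-10 cm tall; pots hold a loam-sand blend. Plants grow 10 days under greenhouse conditions and are rated by eye against untreated controls (0 no effect, 100 complete control).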
# [2] = tested on: wheat (Triticum aestivum); assay: as above; conditions: Postemergence, 10 days, 0 is no effect, 100 is complete control
# Outline: as §1
# [3] = tested on: galium (catchweed bedstraw, Galium aparine); assay: as above; conditions: Postemergence, 10 days; for Galium plant response rating (0 to 100 scale): 0 is no effect, 100 is complete control
# Outline: as §1
# [4] = tested on: oat, wild (wild oat, Avena fatua); assay: as above; conditions: Postemergence, 10 days, 0 is no effect, 100 is complete control
# Outline: as §1
# [5] = tested on: corn (Zea mays); assay: as above; conditions: Postemergence, 10 days, 0 is no effect, 100 is complete control
# Outline: as §1
# [6] = tested on: blackgrass (Alopecurus myosuroides); assay: as above; conditions: Postemergence, 10 days; for Blackgrass plant response rating (0 to 100 scale): 0 is no effect, 100 is complete control
# Outline: as §1
# [7] = tested on: ragweed (common ragweed, Ambrosia artemisiifolia); assay: as above; conditions: Postemergence, 10 days, 0 is no effect, 100 is complete control
# Outline: as §1
# [8] = tested on: horseweed (Erigeron canadensis); assay: as above; conditions: Postemergence, 10 days; for Horseweed plant response rating (0 to 100 scale): 0 is no effect, 100 is complete control
# Outline: as §1
# [9] = tested on: palmer (palmer amaranth, palmer pigweed, Amaranthus palmeri); assay: as above; conditions: Postemergence, 10 days, 0 is no effect, 100 is complete control
# Outline: as §1
# [10] = tested on: green foxtail (Setaria viridis); assay: as above; conditions: Postemergence, 10 days; for Foxtail, Green plant response rating (0 to 100 scale): 0 is no effect, 100 is complete control
# Outline: as §1
# [11] = tested on: kochia (Bassia scoparia); assay: as above; conditions: Postemergence, 10 days; for Kochia plant response rating (0 to 100 scale): 0 is no effect, 100 is complete control
# Outline: as §1
# [12] = tested on: soybean (Glycine max); assay: as above; conditions: Postemergence, 10 days, 0 is no effect, 100 is complete control
# Outline: as §1
# [13] = tested on: barnyardgrass (Echinochloa crus-galli); assay: as above; conditions: Postemergence, 10 days; for Barnyardgrass plant response rating (0 to 100 scale): 0 is no effect, 100 is complete control
# Outline: as §1
# [14] = tested on: ducksalad (Heteranthera limosa); assay: Test B flooded paddy test, visual plant response rating 0-100; conditions: 250 g ai/ha, Flood, applied to paddy water, evaluated after 13 days
# Outline: (§2)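 Compounds applied to standing paddy water (3 cm above soil, maintained for the test duration) on 2-leaf-stage plants; visual rating vs controls at 13 days, greenhouse.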
# [15] = tested on: rice (Oryza sativa); assay: as above; conditions: 250 g ai/ha, Flood, applied to paddy water, evaluated after 13 days
# Outline: as §2
# [16] = tested on: sedge, umbrella (small-flower umbrella sedge, Cyperus difformis); assay: as above; conditions: 250 g ai/ha, Flood, applied to paddy water, evaluated after 13 days
# Outline: as §2
# [17] = tested on: barnyardgrass (Echinochloa crusgalli); assay: as above; conditions: 250 g ai/ha, Flood, applied to paddy water, evaluated after 13 days
# Outline: as §2
# [18] = tested on: ryegrass, Italian (italian ryegrass, Lolium multiflorum); assay: Test A preemergence soil spray, visual injury rating 0-100; conditions: 10 days, 0 = no effect, 100 = complete control
# Outline: as §1
# [19] = tested on: wheat (Triticum aestivum); assay: as above; conditions: 500 g ai/ha, 10 days, 0 = no effect, 100 = complete control
# Outline: as §1
# [20] = tested on: oat, wild (wild oat, Avena fatua); assay: as above; conditions: 10 days, 0 = no effect, 100 = complete control
# Outline: as §1
# [21] = tested on: corn (Zea mays); assay: as above; conditions: 10 days, 0 = no effect, 100 = complete control
# Outline: as §1
# [22] = tested on: blackgrass (Alopecurus myosuroides); assay: as above; conditions: 10 days, 0 = no effect, 100 = complete control
# Outline: as §1
# [23] = tested on: ragweed (common ragweed, Ambrosia artemisiifolia); assay: as above; conditions: 10 days, 0 = no effect, 100 = complete control
# Outline: as §1
# [24] = tested on: green foxtail (Setaria viridis); assay: as above; conditions: 10 days, 0 = no effect, 100 = complete control
# Outline: as §1
# [25] = tested on: kochia (Bassia scoparia); assay: as above; conditions: 10 days, 0 = no effect, 100 = complete control
# Outline: as §1
# [26] = tested on: soybean (Glycine max); assay: as above; conditions: 10 days, 0 = no effect, 100 = complete control
# Outline: as §1
# [27] = tested on: barnyardgrass (Echinochloa crus-galli); assay: as above; conditions: 10 days, 0 = no effect, 100 = complete control
# Outline: as §1
# [28] = tested on: palmer (palmer amaranth, palmer pigweed, Amaranthus palmeri); assay: as above; conditions: 1000 g ai/ha, 10 days, 0 = no effect, 100 = complete control
# Outline: as §1
compound,measurement,setting,value
"COC(=O)[C@H]1C[C@@H](NC(=O)C2(C)CN(c3cc(F)cc(F)c3)C(=O)O2)[C@H]2C[C@H]21 (stereo partly drawn) [Compound 176, methyl (1R,2S,4R,5S)-4-[[3-(3,5-difluorophenyl)-5-methyl-2-oxo-oxazolidine-5-carbonyl]amino]bicyclo[3.1.0]hexane-2-carboxylate]","Ryegrass, Italian plant response rating (0 to 100 scale)",[1]; 125 g ai/ha,100
same,"Ryegrass, Italian plant response rating (0 to 100 scale)",[1]; 500 g ai/ha,100
same,Wheat plant response rating (0 to 100 scale),[2]; 125 g ai/ha,90
same,Wheat plant response rating (0 to 100 scale),[2]; 500 g ai/ha,90
same,Galium plant response rating (0 to 100 scale),[3]; 125 g ai/ha,90
same,Galium plant response rating (0 to 100 scale),[3]; 500 g ai/ha,100
same,"Oat, Wild plant response rating (0 to 100 scale)",[4]; 125 g ai/ha,90
same,"Oat, Wild plant response rating (0 to 100 scale)",[4]; 500 g ai/ha,90
same,Corn plant response rating (0 to 100 scale),[5]; 125 g ai/ha,100
same,Corn plant response rating (0 to 100 scale),[5]; 500 g ai/ha,100
same,Blackgrass plant response rating (0 to 100 scale),[6]; 125 g ai/ha,90
same,Blackgrass plant response rating (0 to 100 scale),[6]; 500 g ai/ha,90
same,Ragweed plant response rating (0 to 100 scale),[7]; 125 g ai/ha,70
same,Ragweed plant response rating (0 to 100 scale),[7]; 500 g ai/ha,80
same,Horseweed plant response rating (0 to 100 scale),[8]; 125 g ai/ha,0
same,Horseweed plant response rating (0 to 100 scale),[8]; 500 g ai/ha,30
same,"Amaranth, Palmer / Pigweed, Palmer plant response rating (0 to 100 scale)",[9]; 125 g ai/ha,80
same,"Amaranth, Palmer / Pigweed, Palmer plant response rating (0 to 100 scale)",[9]; 500 g ai/ha,90
same,"Foxtail, Green plant response rating (0 to 100 scale)",[10]; 125 g ai/ha,90
same,"Foxtail, Green plant response rating (0 to 100 scale)",[10]; 500 g ai/ha,90
same,Kochia plant response rating (0 to 100 scale),[11]; 125 g ai/ha,90
same,Kochia plant response rating (0 to 100 scale),[11]; 500 g ai/ha,90
same,Soybean plant response rating (0 to 100 scale),[12]; 125 g ai/ha,70
same,Soybean plant response rating (0 to 100 scale),[12]; 500 g ai/ha,70
same,Barnyardgrass plant response rating (0 to 100 scale),[13]; 125 g ai/ha,100
same,Barnyardgrass plant response rating (0 to 100 scale),[13]; 500 g ai/ha,100
same,"Plant response rating, Ducksalad (0 to 100 scale, 0 is no effect and 100 is complete control)",[14],65
same,"Plant response rating, Rice (0 to 100 scale, 0 is no effect and 100 is complete control)",[15],35
same,"Plant response rating, Sedge, Umbrella (0 to 100 scale, 0 is no effect and 100 is complete control)",[16],45
same,"Plant response rating, Barnyardgrass (0 to 100 scale, 0 is no effect and 100 is complete control)",[17],55
same,"Ryegrass, Italian plant response rating (0 to 100 scale)",[18]; 125 g ai/ha,100
same,"Ryegrass, Italian plant response rating (0 to 100 scale)",[18]; 500 g ai/ha,100
same,Wheat plant response rating (0 to 100 scale),[19],100
same,"Oat, Wild plant response rating (0 to 100 scale)",[20]; 125 g ai/ha,90
same,"Oat, Wild plant response rating (0 to 100 scale)",[20]; 500 g ai/ha,90
same,Corn plant response rating (0 to 100 scale),[21]; 125 g ai/ha,70
same,Corn plant response rating (0 to 100 scale),[21]; 500 g ai/ha,100
same,Blackgrass plant response rating (0 to 100 scale),[22]; 125 g ai/ha,90
same,Blackgrass plant response rating (0 to 100 scale),[22]; 500 g ai/ha,100
same,Ragweed plant response rating (0 to 100 scale),[23]; 125 g ai/ha,0
same,Ragweed plant response rating (0 to 100 scale),[23]; 500 g ai/ha,0
same,"Foxtail, Green plant response rating (0 to 100 scale)",[24]; 125 g ai/ha,90
same,"Foxtail, Green plant response rating (0 to 100 scale)",[24]; 500 g ai/ha,100
same,Kochia plant response rating (0 to 100 scale),[25]; 125 g ai/ha,90
same,Kochia plant response rating (0 to 100 scale),[25]; 500 g ai/ha,100
same,Soybean plant response rating (0 to 100 scale),[26]; 125 g ai/ha,70
same,Soybean plant response rating (0 to 100 scale),[26]; 500 g ai/ha,80
same,Barnyardgrass plant response rating (0 to 100 scale),[27]; 125 g ai/ha,100
same,Barnyardgrass plant response rating (0 to 100 scale),[27]; 500 g ai/ha,100
CC1(C(=O)NC2CC=C(C(=O)O)C2)CN(c2cc(F)cc(F)c2)C(=O)N1 (stereo not drawn) [Compound 182],Galium plant response rating,"[3]; 1000 g ai/ha, 0 to 100 scale",90
same,Blackgrass plant response rating,"[6]; 1000 g ai/ha, 0 to 100 scale",90
same,Horseweed plant response rating,"[8]; 1000 g ai/ha, 0 to 100 scale",80
same,"Foxtail, Green plant response rating","[10]; 1000 g ai/ha, 0 to 100 scale",90
same,Kochia plant response rating,"[11]; 1000 g ai/ha, 0 to 100 scale",80
same,Barnyardgrass plant response rating,"[13]; 1000 g ai/ha, 0 to 100 scale",90
same,"Plant response rating, Ducksalad (0 to 100 scale, 0 is no effect and 100 is complete control)",[14],60
same,"Plant response rating, Rice (0 to 100 scale, 0 is no effect and 100 is complete control)",[15],15
same,"Plant response rating, Sedge, Umbrella (0 to 100 scale, 0 is no effect and 100 is complete control)",[16],70
same,"Plant response rating, Barnyardgrass (0 to 100 scale, 0 is no effect and 100 is complete control)",[17],20
same,"Ryegrass, Italian plant response rating (0 to 100 scale)",[18]; 1000 g ai/ha,90
same,Blackgrass plant response rating (0 to 100 scale),[22]; 1000 g ai/ha,90
same,Ragweed plant response rating (0 to 100 scale),[23]; 1000 g ai/ha,30
same,"Amaranth, Palmer / Pigweed, Palmer plant response rating (0 to 100 scale)",[28],90
same,"Foxtail, Green plant response rating (0 to 100 scale)",[24]; 1000 g ai/ha,100
same,Kochia plant response rating (0 to 100 scale),[25]; 1000 g ai/ha,90
same,Barnyardgrass plant response rating (0 to 100 scale),[27]; 1000 g ai/ha,80
